Where a name gives a salt, the structure may show the parent alone.
Columns and labels:
[1] = biological target: T1, α4β1 integrin (Jurkat cell adhesion to immobilized CS-1 derived peptide CLHPGEILDVPST) (Homo sapiens, UniProt P05556+P13612); test: Jurkat-CS-1 assay; assay type: cell-based; conditions: Jurkat cells on CS-1 peptide coated plates; read-out: JK/CS-1 (Jurkat CS-1 Assay IC50 value range)
T1 construct: 100 μl of Jurkat cells (2.5×10^6 cells/ml) in DMEM plus BSA; host or cells: Jurkat T-cell line
Procedure, shortened: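 CS-1 peptide was SPDP-crosslinked onto HSA-coated plates and blocked with BSA. Jurkat cells (2.5×10^6 cells/ml) in DMEM/BSA were mixed with compound, generally at 100, 20, 5 and 1.25 μM, and allowed to adhere for 1 hr at 37° C. Bound cells were fixed, stained with toluidine blue and quantified by OD590.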

[2] = biological target: T2, α4β1 integrin (Jurkat T-cell adhesion to IL-1 stimulated endothelial cell monolayers) (Homo sapiens, UniProt P05556+P13612); test: Jurkat-endothelial cell adhesion assay (Jurkat EC); assay type: cell-based; conditions: Jurkat cells on IL-1 stimulated human umbilical vein endothelial cells; read-out: JK/EC (Jurkat EC Assay IC50 value range)
T2 construct: a T-cell line, Jurkat, known to express the α4β1 integrin; host or cells: Jurkat T-cell line
Procedure, shortened: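 BCECF-AM-labelled Jurkat cells were mixed with compound, generally 100, 20, 5 and 1.25 μM, and added to HUVEC monolayers (passage ≤6) pre-stimulated 4 hr at 37° C with 0.1 ng/ml IL-1. After 5 min on ice and 20 min at 37° C, washed wells were read by fluorescence as % adhesion relative to no compound.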

T2 sequence (P13612 34-1032): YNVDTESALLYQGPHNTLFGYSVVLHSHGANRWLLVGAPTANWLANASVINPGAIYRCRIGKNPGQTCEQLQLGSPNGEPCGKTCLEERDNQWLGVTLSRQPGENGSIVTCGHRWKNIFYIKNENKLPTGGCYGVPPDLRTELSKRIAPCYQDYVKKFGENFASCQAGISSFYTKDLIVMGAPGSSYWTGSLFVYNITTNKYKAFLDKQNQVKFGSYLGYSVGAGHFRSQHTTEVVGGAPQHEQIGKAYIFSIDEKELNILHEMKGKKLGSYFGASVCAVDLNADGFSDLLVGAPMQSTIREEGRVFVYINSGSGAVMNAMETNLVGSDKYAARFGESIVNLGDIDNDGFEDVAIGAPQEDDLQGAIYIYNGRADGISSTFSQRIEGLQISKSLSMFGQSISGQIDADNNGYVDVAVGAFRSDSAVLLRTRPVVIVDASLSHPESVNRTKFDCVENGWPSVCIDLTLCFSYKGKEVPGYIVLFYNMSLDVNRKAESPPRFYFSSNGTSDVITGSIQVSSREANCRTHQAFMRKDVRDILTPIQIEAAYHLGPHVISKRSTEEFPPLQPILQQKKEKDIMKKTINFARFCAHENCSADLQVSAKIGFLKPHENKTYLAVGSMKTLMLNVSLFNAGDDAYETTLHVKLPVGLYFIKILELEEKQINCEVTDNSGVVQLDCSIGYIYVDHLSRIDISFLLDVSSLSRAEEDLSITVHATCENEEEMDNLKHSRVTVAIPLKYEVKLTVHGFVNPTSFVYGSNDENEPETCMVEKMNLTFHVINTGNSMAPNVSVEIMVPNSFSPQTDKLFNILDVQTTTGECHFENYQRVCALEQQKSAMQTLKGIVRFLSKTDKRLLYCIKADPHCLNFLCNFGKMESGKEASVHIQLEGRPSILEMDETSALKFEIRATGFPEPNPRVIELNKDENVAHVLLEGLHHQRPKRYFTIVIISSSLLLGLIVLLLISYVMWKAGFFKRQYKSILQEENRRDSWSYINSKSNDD
T2 sequence (P05556 21-798): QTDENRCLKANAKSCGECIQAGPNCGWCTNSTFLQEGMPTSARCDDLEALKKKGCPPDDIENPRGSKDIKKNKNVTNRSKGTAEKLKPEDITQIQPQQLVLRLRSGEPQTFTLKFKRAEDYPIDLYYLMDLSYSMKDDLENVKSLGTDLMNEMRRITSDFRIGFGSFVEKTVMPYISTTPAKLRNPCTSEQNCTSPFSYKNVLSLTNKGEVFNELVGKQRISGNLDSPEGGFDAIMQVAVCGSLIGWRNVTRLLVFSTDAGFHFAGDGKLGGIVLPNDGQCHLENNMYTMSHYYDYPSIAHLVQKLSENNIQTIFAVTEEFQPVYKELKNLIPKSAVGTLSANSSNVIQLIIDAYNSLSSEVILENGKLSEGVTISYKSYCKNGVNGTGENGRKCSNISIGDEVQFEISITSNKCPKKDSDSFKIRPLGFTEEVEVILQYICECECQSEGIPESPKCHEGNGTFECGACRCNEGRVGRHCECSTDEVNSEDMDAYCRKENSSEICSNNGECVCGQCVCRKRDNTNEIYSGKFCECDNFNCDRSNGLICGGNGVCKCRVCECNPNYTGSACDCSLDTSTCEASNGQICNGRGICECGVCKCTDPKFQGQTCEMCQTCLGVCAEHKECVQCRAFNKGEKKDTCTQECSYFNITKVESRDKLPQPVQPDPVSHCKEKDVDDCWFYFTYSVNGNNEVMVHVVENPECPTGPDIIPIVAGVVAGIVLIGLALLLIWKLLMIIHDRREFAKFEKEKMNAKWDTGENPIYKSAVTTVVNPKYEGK
T1 sequence (P13612 34-1032): as the sequence (P13612 34-1032) above
T1 sequence (P05556 21-798): as the sequence (P05556 21-798) above

Compound | IC50 [1] [nM] | IC50 [2] [nM]
O=C(Nc1ccc(C[C@H](NC(=O)[C@@H]2CSCN2)C(=O)O)cc1)c1c(Cl)cccc1Cl [Example 71, 4-[(2,6-Dichlorobenzoyl)amino]-N-[[(4R)-4-thiazolidinyl]carbonyl]-L-phenylalanine Monohydrochloride Salt] | ≥ 750 | ≥ 1000
CCOC(=O)N1CSC[C@@H]1C(=O)N[C@@H](Cc1ccc(OCc2c(Cl)cccc2Cl)cc1)C(=O)O (relative stereo) [Example 35, [S-(R*,R*)]-4-[[[1-Carboxy-2-[4-[(2,6-dichlorophenyl)methoxy]phenyl]ethyl]amino]carbonyl]-3-thiazolidinecarboxylic Acid 3-Ethyl Ester] | 50 to 750 | 250 to 1000
COC(=O)[C@H](Cc1ccc(NC(=O)c2c(Cl)cccc2Cl)cc1)NC(=O)[C@@H]1CSCCN1C(=O)CCc1nnn[nH]1 [Example 102, 4-[(2,6-Dichlorobenzoyl)amino]-N-[[(3R)-4-[1-oxo-3-(1H-tetrazol-5-yl)propyl]-3-thiomorpholinyl]carbonyl]-L-phenylalanine Methyl Ester] | ≥ 750 | ≥ 1000
O=C(O)c1cccc(C(=O)N2CCC(C(=O)N[C@@H](Cc3ccc(NC(=O)c4c(Cl)cccc4Cl)cc3)C(=O)O)CC2)c1 [Example 220] | 50 to 750 | ≥ 1000
CCOC(=O)N1CSC[C@H]1C(=O)N[C@@H](Cc1ccc(NC(=O)c2c(Cl)cccc2Cl)cc1)C(=O)O (relative stereo) [Example 16, [R-(R*,S*)]-4-[[[1-Carboxy-2-[4-[(2,6-dichlorobenzoyl)amino]phenyl]ethyl]amino]carbonyl]-3-thiazolidinecarboxylic Acid 3-Ethyl Ester] | 50 to 750 | ≤ 250
CN(C)c1cccc2c(S(=O)(=O)N3CSC[C@@H]3C(=O)N[C@@H](Cc3ccc(NC(=O)c4c(Cl)cccc4Cl)cc3)C(=O)O)cccc12 [Example 49, 4-[(2,6-Dichlorobenzoyl)amino]-N-[[(4S)-3-[[5-(dimethylamino)-1-naphthalenyl]sulfonyl]-4-thiazolidinyl]carbonyl]-L-phenylalanine] | ≥ 750 | ≥ 1000
CCN(CC)C(=O)N1CSC[C@@H]1C(=O)N[C@@H](Cc1ccc(NC(=O)c2c(Cl)cccc2Cl)cc1)C(=O)O [Example 53, 4-[(2,6-Dichlorobenzoyl)amino]-N-[[(4S)-3-[(diethylamino)carbonyl]-4-thiazolidinyl]carbonyl]-L-phenylalanine] | ≤ 50 | ≤ 250
O=C(Nc1ccc(C[C@H](NC(=O)[C@@H]2CSCCN2)C(=O)O)cc1)c1c(Cl)cccc1Cl [Example 101, 4-[(2,6-Dichlorobenzoyl)amino]-N-[[(3R)-3-thiomorpholinyl]carbonyl]-L-phenylalanine Monohydrochloride] | 50 to 750 | 250 to 1000
COC(=O)[C@H](Cc1ccc(NC(=O)c2c(Cl)cccc2Cl)cc1)NC(=O)[C@H]1CSCN1S(C)(=O)=O [Example 2, 4-[(2,6-Dichlorobenzoyl)amino]-N-[[(4S)-3-(methylsulfonyl)-4-thiazolidinyl]carbonyl]-L-phenylalanine Methyl Ester] | 50 to 750 | ≤ 250
COC(=O)[C@H](Cc1ccc(OCc2c(Cl)cccc2Cl)cc1)NC(=O)[C@H]1CSCN1S(C)(=O)=O [Example 50, O-[(2,6-Dichlorophenyl)methyl]-N-[[(4S)-3-(methylsulfonyl)-4-thiazolidinyl]carbonyl]-L-tyrosine Methyl Ester] | 50 to 750 | ≥ 1000
CS(=O)(=O)N1CSC[C@@H]1C(=O)N[C@@H](Cc1ccc(NC(=O)c2c(Cl)cccc2Cl)cc1)C(=O)O [Example 3, 4-[(2,6-Dichlorobenzoyl)amino]-N-[[(4S)-3-(methylsulfonyl)-4-thiazolidinyl]carbonyl]-L-phenylalanine] | ≤ 50 | ≤ 250
CC(C)(C)OC(=O)N1CC(C(=O)N[C@@H](Cc2ccc(NC(=O)c3c(Cl)cccc3Cl)cc2)C(=O)O)C1 [Example 146] | ≥ 750 | ≥ 1000
CC(=O)N1CSC[C@@H]1C(=O)N[C@@H](Cc1ccc(OCc2c(Cl)cccc2Cl)cc1)C(=O)O [Example 66, N-[[(4S)-3-Acetyl-4-thiazolidinyl]carbonyl]-O-[(2,6-dichlorophenyl)methyl]-L-tyrosine] | 50 to 750 | ≤ 250
O=C(NO)[C@H](Cc1ccc(OCc2c(Cl)cccc2Cl)cc1)NC(=O)[C@H]1CSCN1C(=O)OCCN1CCOCC1 [Example 91] | ≥ 750 | ≥ 1000
O=C(O)/C=C/C(=O)N1CSC[C@@H]1C(=O)N[C@@H](Cc1ccc(NC(=O)c2c(Cl)cccc2Cl)cc1)C(=O)O [Example 261] | 50 to 750 | 250 to 1000
O=C(Nc1ccc(C[C@H](NC(=O)[C@H]2CSCN2S(=O)(=O)c2ccc(C(F)(F)F)cn2)C(=O)O)cc1)c1c(Cl)cccc1Cl [Example 45] | 50 to 750 | 250 to 1000
O=C(O)c1ccccc1C(=O)N1CCC[C@H]1C(=O)N[C@@H](Cc1ccc(NC(=O)c2c(Cl)cccc2Cl)cc1)C(=O)O [Example 234] | 50 to 750 | ≥ 1000
CCOC(=O)N1CSC[C@@H]1C(=O)N[C@@H](Cc1ccc(NC(=O)c2c(Cl)cccc2Cl)cc1)C(=O)OC (relative stereo) [Example 4, [S-(R*,R*)]-4-[[[1-[[4-[(2,6-Dichlorobenzoyl)amino]phenyl]methyl]-2-methoxy-2-oxoethyl]amino]carbonyl]-3-thiazolidinecarboxylic Acid 3-Ethyl Ester] | ≤ 50 | ≤ 250
CN1C(=O)CCC1(CCC(=O)O)CCC(=O)N[C@@H](Cc1ccc(NC(=O)c2c(Cl)cccc2Cl)cc1)C(=O)O (stereo partly drawn) [Example 111, 2-[3-[[(1S)-1-Carboxy-2-[4-[(2,6-dichlorobenzoyl)amino]phenyl]ethyl]amino]-3-oxo-propyl]-1-methyl-5-oxo-2-pyrrolidinepropanoic Acid] | 50 to 750 | 250 to 1000
CC(C)(C)OC(=O)N1CSC[C@H]1C(=O)N[C@@H](Cc1ccc(OCc2c(Cl)cccc2Cl)cc1)C(=O)O (relative stereo) [Example 41, [R-(R*,S*)]-4-[[[1-Carboxy-2-[4-[(2,6-dichlorophenyl)methoxy]phenyl]ethyl]amino]carbonyl]-3-thiazolidinecarboxylic Acid 3-(1,1-Dimethylethyl)ester] | ≥ 750 | ≥ 1000
O=C(O)c1ccc2cc(C(=O)N3CCCC(C(=O)N[C@@H](Cc4ccc(NC(=O)c5c(Cl)cccc5Cl)cc4)C(=O)O)C3)ccc2c1 (stereo partly drawn) [Example 206] | 50 to 750 | 250 to 1000
O=C(O)CCCC(=O)N1CSC[C@H]1C(=O)N[C@@H](Cc1ccc(NC(=O)c2c(Cl)cccc2Cl)cc1)C(=O)O (relative stereo) [Example 68, [R-(R*,S*)]-4-[[[1-Carboxy-2-[4-[(2,6-dichlorobenzoyl)amino]phenyl]ethyl]amino]carbonyl]-δ-oxo-3-thiazolidinepentanoic Acid] | 50 to 750 | ≥ 1000
COC(=O)CCC(=O)N1[C@@H](C(=O)N[C@@H](Cc2ccc(NC(=O)c3c(Cl)cccc3Cl)cc2)C(=O)OC)C(C)(C)SC1(C)C (relative stereo) [Example 86, [S-(R*,R*)]-4-[[[1-[[4-[(2,6-Dichlorobenzoyl)amino]phenyl]methyl]-2-methoxy-2-oxoethyl]amino]carbonyl]-2,2,5,5-tetramethyl-γ-oxo-3-thiazolidinebutanoic Acid Methyl Ester] | ≥ 750 | ≥ 1000
O=C(O)CNC(=O)N1CCC[C@H]1C(=O)N[C@@H](Cc1ccc(NC(=O)c2c(Cl)cccc2Cl)cc1)C(=O)O [Example 232] | ≥ 750 | ≥ 1000
O=C(O)c1cccc(C(=O)N2CCCC[C@H]2C(=O)N[C@@H](Cc2ccc(NC(=O)c3c(Cl)cccc3Cl)cc2)C(=O)O)n1 [Example 186] | ≤ 50 | ≤ 250
O=C(Nc1ccc(C[C@H](NC(=O)[C@H]2CCCCN2C(=O)c2cccnc2)C(=O)O)cc1)c1c(Cl)cccc1Cl [Example 252] | ≤ 50 | ≤ 250
NC(=O)[C@H](Cc1ccc(OCc2c(Cl)cccc2Cl)cc1)NC(=O)[C@H]1CSCN1C(=O)OCCN1CCOCC1 (relative stereo) [Example 89, [S-(R*,R*)]-4-[[[1-[[4-[(2,6-Dichlorophenyl)methoxy]phenyl]methyl]-2-amino-2-oxoethyl]amino]carbonyl]-3-thiazolidinecarboxylic Acid 3-[2-(4-morpholinyl)ethyl]ester] | 50 to 750 | ≥ 1000
COc1ccc(C(=O)N2CCC[C@H]2C(=O)N[C@@H](Cc2ccc(NC(=O)c3c(Cl)cccc3Cl)cc2)C(=O)O)cc1OC [Example 233] | 50 to 750 | ≥ 1000
O=C(Nc1ccc(C[C@H](NC(=O)[C@H]2COCN2C(=O)OCc2ccccc2)C(=O)O)cc1)c1c(Cl)cccc1Cl [Example 127, [R-(R*,S*)]-4-[[[1-Carboxy-2-[4-[(2,6-dichlorobenzoyl)amino]phenyl]ethyl]amino]-carbonyl]-3-oxazolidinecarboxylic Acid 3-(Phenylmethyl)ester] | 50 to 750 | ≤ 250
O=C(O)c1cccc(C(=O)N2CCCC[C@@H]2C(=O)N[C@@H](Cc2ccc(NC(=O)c3c(Cl)cccc3Cl)cc2)C(=O)O)n1 [Example 251] | ≤ 50 | ≤ 250

— US6685617B1, “Inhibitors of α4β1 mediated cell adhesion” (Pharmacia & Upjohn Company, priority 1998, dated 2004)
